# From patent publication US20230165252A1, “ACTIVE COMPOUND COMBINATIONS” (Bayer Aktiengesellschaft, priority 2020, published 2023)
# Where “and” joins values, the source holds several entries; their conditions need not be identical. Equal entries are not always repeated. Where two headings read alike, the source gives them in different places.
# Experiments:
# Type in all cases: cell-based
# [1] = tested on: Colletotrichum lindemuthianum; assay: in vitro-Test with Colletotrichum lindemuthianum (microtiter growth inhibition); conditions: for inhibition of growth at 0.04 ppm: applied alone at 0.04 ppm; for inhibition of growth at 0.004 ppm: applied alone at 0.004 ppm; for inhibition of growth at 0.02 ppm: applied alone at 0.020 ppm; for inhibition of growth at 0.1 ppm: applied alone at 0.1 ppm; for inhibition of growth at 0.5 ppm: applied alone at 0.5 ppm
# Protocol: The degree of efficacy expressed in % is denoted: 0% means an efficacy, which corresponds to that of the control, while an efficacy of 100% means that no disease is observed.
# If the actual fungicidal activity exceeds the calculated value, then the activity of the combination is super-additive, i.e. a synergistic effect exists. In this case, the efficacy, which was actually observed, must be greater than the value for the expected efficacy (E), that was calculated from the abovementioned formula.
# Example: In Vitro-Test with Fungal Microorganisms
# Wells of 96-well microtiter plates are filled with 10 μl of a preparation of test compound or compound combination in methanol+emulsifier alkylaryl-polyglycol-ether. Thereafter, the solvent is evaporated in a hood. At the next step, 100 μl of liquid potato dextrose medium is given into each well, that has been amended with an appropriate concentration of spores or mycelium suspension of the test fungus.
# With the aid of a photometer, the extinction in all wells is measured at the wavelength of 620 nm.
# The microtiter plates are incubated at 20° C. and 85% relative humidity. The inhibition of growth is determined again photometrically 3-5 days after the application. Efficacy is calculated in relation to the untreated control, 0% efficacy means fungal growth as high as in untreated control while 100% efficacy means no fungal growth is measured.
# Parastagonospora nodorum = assay: in vitro-Test with Parastagonospora nodorum (microtiter growth inhibition)
# Method in brief: (§1)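 Growth inhibition in potato dextrose broth inoculated with spores or mycelium, over solvent-evaporated compound films, was followed photometrically at 620 nm across 3-5 days at 20° C. Synergy for mixtures is claimed when observed efficacy exceeds the expected value E.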
# [2] = tested on: Ustilago segetum var. avenae; assay: in vitro-Test with Ustilago segetum var. avenae (microtiter growth inhibition); conditions: for inhibition of growth at 0.02 ppm: 0.020 ppm
# Method in brief: as §1
# Botrytis cinerea = assay: in vitro-Test with Botrytis cinerea (microtiter growth inhibition); conditions: for Efficacy: applied alone
# Method in brief: as §1
# Cercospora beticola = assay: in vitro-Test with Cercospora beticola (microtiter growth inhibition)
# Method in brief: as §1
# Fusarium culmorum = assay: in vitro-Test with Fusarium culmorum (microtiter growth inhibition); conditions: Fusarium culmorum, read-out: Efficacy; for inhibition of growth at 0.02 ppm: 0.020 ppm
# Method in brief: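 Test compound or combination in methanol plus alkylaryl-polyglycol-ether emulsifier was dried into microtiter wells, then overlaid with liquid potato dextrose medium seeded with spores or mycelium. Plates were held at 20° C. and 85% relative humidity, and growth was read photometrically at 620 nm after 3-5 days. Efficacy is relative to untreated control.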
# Diaporthe citri = assay: in vitro-Test with Diaporthe citri (microtiter growth inhibition); conditions: Diaporthe citri, applied alone, read-out: Efficacy; for inhibition of growth at 0.02 ppm: 0.020 ppm
# Method in brief: as §1
# Cordana musae = assay: in vitro-Test with Cordana musae (microtiter growth inhibition); conditions: Neocordana musae, single substance, read-out: Efficacy; for inhibition of growth at 0.02 ppm: 0.020 ppm
# Method in brief: as §1
# Alternaria alternate = assay: in vitro-Test with Alternaria alternate (microtiter growth inhibition); conditions: Alternaria, alone, read-out: Efficacy %
# Method in brief: as §1
# [3] = Colletotrichum lindemuthianum, applied alone at 0.008 ppm, read-out: Efficacy %
# [4] = Colletotrichum lindemuthianum, read-out: Efficacy %
# [5] = Colletotrichum lindemuthianum, applied alone at 1.0 ppm, read-out: Efficacy %
# [6] = Parastagonospora nodorum, compound alone, read-out: Efficacy %
# [7] = compound alone, 0.2 ppm, read-out: Efficacy %
# [8] = Parastagonospora nodorum, compound alone, 0.004 ppm, read-out: Efficacy %
# [9] = Parastagonospora nodorum, compound alone, 0.020 ppm, read-out: Efficacy %
# [10] = Parastagonospora nodorum, compound alone, 0.1 ppm, read-out: Efficacy %
# [11] = Parastagonospora nodorum, compound alone, 0.5 ppm, read-out: Efficacy %
# [12] = compound alone, read-out: Efficacy %
# [13] = single compound, read-out: Efficacy %
structure (smiles),measurement,setting,value
CC1COC(Cn2cncn2)(c2ccc(Oc3ccc(Cl)cc3)cc2Cl)O1 (stereo not shown) [(1.002) difenoconazole],inhibition of growth at 0.008 ppm,[1]; [3],2%
same,inhibition of growth at 0.04 ppm,[1]; [4],13%
same,inhibition of growth at 1 ppm,[1]; [5],13%
same,inhibition of growth at 0.04 ppm,Parastagonospora nodorum; [6],16%
same,inhibition of growth at 0.2 ppm,Parastagonospora nodorum; [6],83%
same,Efficacy %,"Parastagonospora nodorum; compound alone, 0.008 ppm",0%
same,Efficacy %,"Parastagonospora nodorum; compound alone, 1.0 ppm",97%
same,inhibition of growth at 0.008 ppm,"[2]; compound alone, 0.008 ppm, read-out: Efficacy %",14%
same,inhibition of growth at 0.2 ppm,[2]; [7],57%
CC(C)c1ccc(Cl)cc1CN(C(=O)c1c(C(F)F)nn(C)c1F)C1CC1 [(2.038) isoflucypram],Efficacy %,[1]; applied alone at 0.008 ppm,15% and 8%
same,Efficacy %,[1]; applied alone at 1.0 ppm,5%
same,Efficacy %,Botrytis cinerea; single active at 0.04 ppm,43% and 57%
same,Efficacy %,Botrytis cinerea; single active at 0.2 ppm,63% and 75%
same,Efficacy %,Botrytis cinerea; single active at 1.0 ppm,83% and 87%
same,Efficacy %,"[2]; compound alone, 0.008 ppm",7%
same,Efficacy %,"[2]; compound alone, 0.2 ppm",100% and 98%
same,Efficacy %,"[2]; compound alone, 1.0 ppm",100%
CON=C(C(=O)OC)c1ccccc1CON=C(C)c1cccc(C(F)(F)F)c1 [(3.020) trifloxystrobin],inhibition of growth at 0.008 ppm,[1]; [3],27%
same,inhibition of growth at 0.04 ppm,[1]; [4],56%
same,inhibition of growth at 0.2 ppm,"[1]; Colletotrichum lindemuthianum, applied alone at 0.2 ppm, read-out: Efficacy %",78%
same,inhibition of growth at 1 ppm,[1]; [5],79%
same,Efficacy %,[1]; applied alone at 0.2 ppm,77%
same,inhibition of growth at 0.008 ppm,"Parastagonospora nodorum; Parastagonospora nodorum, compound alone, 0.008 ppm, read-out: Efficacy %",36%
same,inhibition of growth at 0.04 ppm,Parastagonospora nodorum; [6],61%
same,inhibition of growth at 0.2 ppm,Parastagonospora nodorum; [6],75%
same,inhibition of growth at 1 ppm,"Parastagonospora nodorum; Parastagonospora nodorum, compound alone, 1.0 ppm, read-out: Efficacy %",83%
same,inhibition of growth at 0.008 ppm,"Botrytis cinerea; Botrytis cinerea, single active at 0.008 ppm, read-out: Efficacy %",0%
same,inhibition of growth at 0.2 ppm,"Botrytis cinerea; Botrytis cinerea, single active at 0.2 ppm, read-out: Efficacy %",3%
same,inhibition of growth at 1 ppm,"Botrytis cinerea; Botrytis cinerea, single active at 1.0 ppm, read-out: Efficacy %",14%
same,inhibition of growth at 0.2 ppm,[2]; [7],53%
same,inhibition of growth at 1 ppm,"[2]; compound alone, 1.0 ppm, read-out: Efficacy %",82%
CCO[PH](=O)[O-].CCO[PH](=O)[O-].CCO[PH](=O)[O-].[Al+3] [(15.012) fosetyl-aluminium],Efficacy %,[1]; applied alone at 0.8 ppm,0%
same,Efficacy %,[1]; applied alone at 4 ppm,7%
same,Efficacy %,[1]; applied alone at 20 ppm,0%
same,Efficacy %,[1]; applied alone at 100 ppm,53%
same,Efficacy %,"Parastagonospora nodorum; compound alone, 0.8 ppm",0%
same,Efficacy %,"Parastagonospora nodorum; compound alone, 4 ppm",2%
same,Efficacy %,Cercospora beticola; applied alone at 0.8 ppm,0%
same,Efficacy %,Cercospora beticola; applied alone at 4 ppm,0%
same,Efficacy %,Cercospora beticola; applied alone at 20 ppm,4%
same,Efficacy %,Cercospora beticola; applied alone at 100 ppm,15%
COc1cc(C)c(C(=O)c2c(OC)ccc(Br)c2C)c(OC)c1OC [(15.016) metrafenone],inhibition of growth at 4 ppm,"[1]; Colletotrichum lindemuthianum, applied alone at 4 ppm, read-out: Efficacy %",15%
same,inhibition of growth at 20 ppm,"[1]; Colletotrichum lindemuthianum, applied alone at 20 ppm, read-out: Efficacy %",10%
same,inhibition of growth at 0.8 ppm,"Botrytis cinerea; Botrytis cinerea, single active at 0.8 ppm, read-out: Efficacy %",0%
same,inhibition of growth at 0.8 ppm,"Cercospora beticola; Cercospora beticola, applied alone at 0.8 ppm, read-out: Efficacy %",0%
same,inhibition of growth at 4 ppm,"Cercospora beticola; Cercospora beticola, applied alone at 4 ppm, read-out: Efficacy %",13%
"Cc1ccc(C(F)(F)CNC(=O)c2c(Oc3cccc(C4CC4)c3F)nnc(Cl)c2C)c(C)c1 [Compound I-655, 6-chloro-3-(3-cyclopropyl-2-fluorophenoxy)-N-[2-(2,4-dimethylphenyl)-2,2-difluoroethyl]-5-methylpyridazine-4-carboxamide]",inhibition of growth at 0.004 ppm,Fusarium culmorum,0%
same,inhibition of growth at 0.02 ppm,Fusarium culmorum,7%
same,inhibition of growth at 0.1 ppm,Fusarium culmorum,7%
same,inhibition of growth at 0.5 ppm,Fusarium culmorum,19%
same,inhibition of growth at 0.004 ppm,[1]; [4],0%
same,inhibition of growth at 0.02 ppm,[1]; [4],20%
same,inhibition of growth at 0.1 ppm,[1]; [4],98%
same,inhibition of growth at 0.5 ppm,[1]; [4],100%
same,inhibition of growth at 0.004 ppm,Diaporthe citri,0%
same,inhibition of growth at 0.02 ppm,Diaporthe citri,0%
same,inhibition of growth at 0.1 ppm,Diaporthe citri,13%
same,inhibition of growth at 0.5 ppm,Diaporthe citri,100%
same,Efficacy,Parastagonospora nodorum; 0.004 ppm,0%
same,Efficacy,Parastagonospora nodorum; 0.020 ppm,0%
same,Efficacy,Parastagonospora nodorum; 0.1 ppm,41%
same,Efficacy,Parastagonospora nodorum; 0.5 ppm,100%
same,inhibition of growth at 0.004 ppm,Parastagonospora nodorum; [8],0%
same,inhibition of growth at 0.02 ppm,Parastagonospora nodorum; [9],0%
same,inhibition of growth at 0.1 ppm,Parastagonospora nodorum; [10],41%
same,inhibition of growth at 0.5 ppm,Parastagonospora nodorum; [11],100%
same,Efficacy,Botrytis cinerea; 0.004 ppm,0%
same,Efficacy,Botrytis cinerea; 0.020 ppm,0%
same,Efficacy,Botrytis cinerea; 0.1 ppm,58%
same,Efficacy,Botrytis cinerea; 0.5 ppm,100%
same,inhibition of growth at 0.004 ppm,[2]; [12],7%
same,inhibition of growth at 0.02 ppm,[2]; [12],6%
same,inhibition of growth at 0.1 ppm,[2]; [12],0%
same,inhibition of growth at 0.5 ppm,[2]; [12],0%
same,inhibition of growth at 0.004 ppm,Cordana musae,2%
same,inhibition of growth at 0.02 ppm,Cordana musae,4%
same,inhibition of growth at 0.1 ppm,Cordana musae,100%
same,inhibition of growth at 0.5 ppm,Cordana musae,100%
same,inhibition of growth at 0.004 ppm,Alternaria alternate,0%
same,inhibition of growth at 0.02 ppm,Alternaria alternate,0%
same,inhibition of growth at 0.1 ppm,Alternaria alternate,20%
same,inhibition of growth at 0.5 ppm,Alternaria alternate,100%
"Cc1ccc(C(F)(F)CNC(=O)c2c(Oc3cccc(C4CC4)c3F)nnc(Cl)c2C)c(Cl)c1 [Compound I-746, 6-chloro-N-[2-(2-chloro-4-methylphenyl)-2,2-difluoroethyl]-3-(3-cyclopropyl-2-fluoro-phenoxy)-5-methylpyridazine-4-carboxamide]",inhibition of growth at 0.004 ppm,Fusarium culmorum,0%
same,inhibition of growth at 0.02 ppm,Fusarium culmorum,0%
same,inhibition of growth at 0.1 ppm,Fusarium culmorum,0%
same,inhibition of growth at 0.5 ppm,Fusarium culmorum,0%
same,inhibition of growth at 0.004 ppm,[1]; [4],0%
same,inhibition of growth at 0.02 ppm,[1]; [4],14%
same,inhibition of growth at 0.1 ppm,[1]; [4],100%
same,inhibition of growth at 0.5 ppm,[1]; [4],100%
same,inhibition of growth at 0.004 ppm,Diaporthe citri,0%
same,inhibition of growth at 0.02 ppm,Diaporthe citri,0%
same,inhibition of growth at 0.1 ppm,Diaporthe citri,2%
same,inhibition of growth at 0.5 ppm,Diaporthe citri,51%
same,inhibition of growth at 0.004 ppm,Parastagonospora nodorum; [8],0%
same,inhibition of growth at 0.02 ppm,Parastagonospora nodorum; [9],0%
same,inhibition of growth at 0.1 ppm,Parastagonospora nodorum; [10],31%
same,inhibition of growth at 0.5 ppm,Parastagonospora nodorum; [11],100%
same,inhibition of growth at 0.004 ppm,[2]; [12],0%
same,inhibition of growth at 0.02 ppm,[2]; [12],2%
same,inhibition of growth at 0.1 ppm,[2]; [12],0%
same,inhibition of growth at 0.5 ppm,[2]; [12],0%
same,inhibition of growth at 0.004 ppm,[2]; [13],0%
same,inhibition of growth at 0.02 ppm,[2]; [13],2%
same,inhibition of growth at 0.1 ppm,[2]; [13],0%
same,inhibition of growth at 0.5 ppm,[2]; [13],0%
same,inhibition of growth at 0.004 ppm,Cordana musae,0%
same,inhibition of growth at 0.02 ppm,Cordana musae,10%
same,inhibition of growth at 0.1 ppm,Cordana musae,79%
same,inhibition of growth at 0.5 ppm,Cordana musae,100%
same,inhibition of growth at 0.004 ppm,"Cercospora beticola; Cercospora beticola, alone, 0.004 ppm, read-out: Efficacy %",0%
same,inhibition of growth at 0.02 ppm,"Cercospora beticola; Cercospora beticola, alone, 0.020 ppm, read-out: Efficacy %",5%
same,inhibition of growth at 0.1 ppm,"Cercospora beticola; Cercospora beticola, alone, 0.1 ppm, read-out: Efficacy %",4%
same,inhibition of growth at 0.5 ppm,"Cercospora beticola; Cercospora beticola, alone, 0.5 ppm, read-out: Efficacy %",26%
same,inhibition of growth at 0.004 ppm,Alternaria alternate,0%
same,inhibition of growth at 0.02 ppm,Alternaria alternate,0%
same,inhibition of growth at 0.1 ppm,Alternaria alternate,22%
same,inhibition of growth at 0.5 ppm,Alternaria alternate,100%
